The target in data set [1] is T1, URAT1 (Homo sapiens, UniProt Q96S37).
T1 sequence (Q96S37 1-553): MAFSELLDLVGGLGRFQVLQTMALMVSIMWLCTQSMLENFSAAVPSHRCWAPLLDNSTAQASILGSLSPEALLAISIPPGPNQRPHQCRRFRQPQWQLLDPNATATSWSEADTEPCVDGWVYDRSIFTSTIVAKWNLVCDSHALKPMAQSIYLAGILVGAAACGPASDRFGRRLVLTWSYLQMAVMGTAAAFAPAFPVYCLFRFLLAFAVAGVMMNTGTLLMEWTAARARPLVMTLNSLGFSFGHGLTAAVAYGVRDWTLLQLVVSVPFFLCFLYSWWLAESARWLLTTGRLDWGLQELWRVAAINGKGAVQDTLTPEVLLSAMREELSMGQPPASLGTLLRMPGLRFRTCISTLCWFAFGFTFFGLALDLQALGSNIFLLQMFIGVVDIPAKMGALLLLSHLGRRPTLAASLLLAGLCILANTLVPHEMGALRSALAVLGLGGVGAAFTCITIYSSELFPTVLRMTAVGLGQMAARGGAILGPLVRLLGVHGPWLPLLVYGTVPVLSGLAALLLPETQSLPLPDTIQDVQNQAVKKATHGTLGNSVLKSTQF
Description: inhibition of [14C] uric acid uptake by oocytes injected with URAT1 cRNA.

The target of data set [2] is T1, URAT1. As to the kind of experiment: uric acid uptake by URAT1 oocytes after preincubation with or pre-injection of organic acids (exchange substrate study). It counts as cell-based. More on the design: expressed in transfected cells; host or cells: Xenopus laevis oocytes ("platanna") injected with URAT1 cRNA. To be noted: for uptake of radiolabeled uric acid after precedent injection of organic acid into oocytes: 100 nl of 100 mM injected, compared to water injected, FIG. 7; for uptake of uric acid after preincubation of oocytes with organic acid: preincubation 1 mM, oocytes injected with URAT1 cRNA, FIG. 6. As to the method:
Therefore, 100 nl of 100 mM non-radiolabeled L-lactic acid was precedently injected in the oocytes, and then the uptake of the radiolabeled uric acid was observed (FIG. 7).

For data set [3], the target named is T1, URAT1. Description: uptake of radiolabeled substrates by oocytes injected with URAT1 cRNA. Format: cell-based. More on the design: expressed in transfected cells; host or cells: Xenopus laevis oocytes ("platanna") injected with URAT1 cRNA. To be noted: oocytes of platanna injected with URAT1 cRNA. As to the method: Michaelis-Menten dynamic experiment in urate transport by URAT1 was carried out. Concentration dependency of uric acid in the transport by URAT1 was studied by examining change of uptake amounts of uric acid at various concentrations by URAT1. The uptake experiment of the radiolabeled uric acid was carried out using oocytes injected with URAT1 cRNA according to the method described above.

Substrate in data set [4]: O=c1[nH]c(=O)c2[nH]c(=O)[nH]c2[nH]1
The description is as above. Format: cell-based, human. To be noted: other: oocytes injected with URAT1 cRNA, FIG. 3.

[5] abbreviates: 50 μM [14C] uric acid, pH 7.4, unlabeled compound at concentrations shown in FIG. 8.

As for `C[C@@H](O)C(=O)O` [D-lactic acid], the “inhibition of transport/uptake of [14C] uric acid by URAT1” value against URAT1 [1] (setting [5]) was “significantly inhibited”.
Turning to `C[C@H](O)C(=O)O` [L-lactic acid], the “uptake of radiolabeled uric acid after precedent injection of organic acid into oocytes” value at URAT1 [2] is listed as “significantly high uptake”. Besides, the “inhibition of transport/uptake of [14C] uric acid by URAT1” value at URAT1 [1] (setting [5]) was “significantly inhibited”.
Regarding `CCCCc1nc(Cl)c(CO)n1Cc1ccc(-c2ccccc2-c2nn[nH]n2)cc1` [Losartan], the IC50 (usually the concentration that gives 50% inhibition) on URAT1 [1] was roughly 20 µM. Further, the “inhibition of transport/uptake of [14C] uric acid by URAT1” value against URAT1 [1] (setting [5]) is on record as “significantly inhibited”.
For the molecule `Nc1ccc(C(=O)NCC(=O)O)cc1` [PAH, para-amino hippuric acid], at URAT1 [2], the “uptake of radiolabeled uric acid after precedent injection of organic acid into oocytes” value is on record as “no change” and the “uptake of uric acid after preincubation of oocytes with organic acid” value (“uptake of uric acid” below) is given as “not facilitated”. For the same molecule, the “inhibition of transport/uptake of [14C] uric acid by URAT1” value against URAT1 [1] (setting [5]) was “did not show any inhibitory action”. For the same molecule, the “uptake of 14C-labeled substrate by oocytes expressing URAT1” value (shortened to “uptake of 14C-labeled substrate”) on URAT1 [3] was “No uptake”.
Turning to `CC[N+](CC)(CC)CC` [TEA, tetraethylammonium], the “inhibition of transport/uptake of [14C] uric acid by URAT1” value against URAT1 [1] (setting [5]) is given as “did not show any inhibitory action”. The “uptake of 14C-labeled substrate” value at URAT1 [3] is reported as “No uptake”.
Take `CCc1oc2ccccc2c1C(=O)c1cc(Br)c(O)c(Br)c1` [benz-bromarone]: the “inhibition of transport/uptake of [14C] uric acid by URAT1” value against URAT1 [1] (pH 7.4) is given as “significantly inhibited”.
In the case of `CC(O)C(=O)O` (stereo not shown) [lactic acid], the “uptake of uric acid” value on URAT1 [2] is reported as “not facilitated”.
On to `O=C(O)c1cccnc1` [nicotinic acid, 3-pyridine carboxylic acid], for which the “uptake of uric acid” value at URAT1 [2] is “significantly increased”. On URAT1 [1] (setting [5]), the “inhibition of transport/uptake of [14C] uric acid by URAT1” value is “significantly inhibited”.
For `CCCN(CCC)S(=O)(=O)c1ccc(C(=O)O)cc1` [probenecid], at URAT1 [1] (setting [5]), the “inhibition of transport/uptake of [14C] uric acid by URAT1” value is listed as “significantly inhibited”.
Regarding `O=C(O)c1cnccn1` [pyrazine carboxylic acid], the “uptake of uric acid” value at URAT1 [2] is recorded as “significantly increased”. For the same molecule, at URAT1 [1] (setting [5]), the “inhibition of transport/uptake of [14C] uric acid by URAT1” value is listed as “significantly inhibited”.
Consider `O=C1C(CC[S+]([O-])c2ccccc2)C(=O)N(c2ccccc2)N1c1ccccc1` (stereo not shown) [sulfinpyrazon], for which the “inhibition of transport/uptake of [14C] uric acid by URAT1” value on URAT1 [1] (setting [5]) is reported as “significantly inhibited”.
Consider `O=c1[nH]c(=O)c2[nH]c(=O)[nH]c2[nH]1` [uric acid], for which, at URAT1 [3], the “uptake of 14C-labeled substrate” value is given as “showed uptake”.
Take Pyrazine dicarboxylic acid: the “inhibition of transport/uptake of [14C] uric acid by URAT1” value against URAT1 [1] (setting [5]) was “slightly weak inhibitory effect”.

B1: URAT1 (Homo sapiens) (protein)
chain: MAFSELLDLVGGLGRFQVLQTMALMVSIMWLCTQSMLENFSAAVPSHRCWAPLLDNSTAQASILGSLSPEALLAISIPPGPNQRPHQCRRFRQPQWQLLDPNATATSWSEADTEPCVDGWVYDRSIFTSTIVAKWNLVCDSHALKPMAQSIYLAGILVGAAACGPASDRFGRRLVLTWSYLQMAVMGTAAAFAPAFPVYCLFRFLLAFAVAGVMMNTGTLLMEWTAARARPLVMTLNSLGFSFGHGLTAAVAYGVRDWTLLQLVVSVPFFLCFLYSWWLAESARWLLTTGRLDWGLQELWRVAAINGKGAVQDTLTPEVLLSAMREELSMGQPPASLGTLLRMPGLRFRTCISTLCWFAFGFTFFGLALDLQALGSNIFLLQMFIGVVDIPAKMGALLLLSHLGRRPTLAASLLLAGLCILANTLVPHEMGALRSALAVLGLGGVGAAFTCITIYSSELFPTVLRMTAVGLGQMAARGGAILGPLVRLLGVHGPWLPLLVYGTVPVLSGLAALLLPETQSLPLPDTIQDVQNQAVKKATHGTLGNSVLKSTQF
notes: expressed in transfected cells; host or cells: Xenopus laevis oocytes ("platanna") injected with URAT1 cRNA
For B1, the Km (in general, the substrate concentration at which the rate is half of its maximum) in data set [4] amounted to 372 ± 25 µM.

Values taken from patent US7510847B2, “Kidney-specific urate transporter and gene thereof” (Human Cell Systems, Inc., priority 2001, dated 2009).
